Molecules are shown by their SMILES.

From paper PMC4685510, “A Cell Biologist’s Field Guide to Aurora Kinase Inhibitors” (Frontiers in Oncology, 2015) come the findings set out here.

What all share (experiment): biochemical
What all share (assay type): biochemical

Assay [1] deals with T1, 363 human kinases (including Aurora A/B/C) (Homo sapiens, UniProt O60285).
T1 sequence (O60285 1-661): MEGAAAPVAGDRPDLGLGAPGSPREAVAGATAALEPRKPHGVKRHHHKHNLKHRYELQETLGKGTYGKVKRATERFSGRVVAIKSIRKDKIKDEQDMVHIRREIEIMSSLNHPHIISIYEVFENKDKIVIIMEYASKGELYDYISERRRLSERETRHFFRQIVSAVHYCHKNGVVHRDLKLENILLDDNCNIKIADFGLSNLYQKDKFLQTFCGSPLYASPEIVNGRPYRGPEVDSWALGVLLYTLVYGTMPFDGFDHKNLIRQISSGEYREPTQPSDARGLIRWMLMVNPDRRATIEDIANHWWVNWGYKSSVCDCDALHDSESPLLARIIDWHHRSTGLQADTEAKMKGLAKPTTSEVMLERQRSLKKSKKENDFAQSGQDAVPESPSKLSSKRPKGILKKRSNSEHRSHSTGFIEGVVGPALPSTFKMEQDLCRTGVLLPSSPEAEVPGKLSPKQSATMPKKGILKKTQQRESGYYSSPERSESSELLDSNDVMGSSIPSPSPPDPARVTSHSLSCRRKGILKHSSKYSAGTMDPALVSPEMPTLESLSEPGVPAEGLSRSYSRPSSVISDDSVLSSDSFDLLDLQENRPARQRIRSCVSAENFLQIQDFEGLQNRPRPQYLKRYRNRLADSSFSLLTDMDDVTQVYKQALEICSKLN
As to conditions: ARK5/NUAK1, [ATP] 30 µM; for remaining activity at 0.5 µM / remaining activity at 0.1 µM: read-out: % Enzyme Activity (relative to DMSO controls); for remaining activity at 0.1 µM: 100 nM.
Description: (§1) However, the Aurora A/B selectivity ratios derived from our in vitro and in vivo data can be compared to prioritize inhibitors.

In assay [2] the target is 363 human kinases (including Aurora A/B/C) (Homo sapiens, UniProt P23443). As to conditions: p70S6K/RPS6KB1; for remaining activity at 0.5 µM / remaining activity at 0.1 µM: read-out: % Enzyme Activity (relative to DMSO controls); for remaining activity at 0.1 µM: 100 nM.
363 human kinases (including Aurora A/B/C) (Homo sapiens, UniProt P23443), sequence (P23443 whole entry): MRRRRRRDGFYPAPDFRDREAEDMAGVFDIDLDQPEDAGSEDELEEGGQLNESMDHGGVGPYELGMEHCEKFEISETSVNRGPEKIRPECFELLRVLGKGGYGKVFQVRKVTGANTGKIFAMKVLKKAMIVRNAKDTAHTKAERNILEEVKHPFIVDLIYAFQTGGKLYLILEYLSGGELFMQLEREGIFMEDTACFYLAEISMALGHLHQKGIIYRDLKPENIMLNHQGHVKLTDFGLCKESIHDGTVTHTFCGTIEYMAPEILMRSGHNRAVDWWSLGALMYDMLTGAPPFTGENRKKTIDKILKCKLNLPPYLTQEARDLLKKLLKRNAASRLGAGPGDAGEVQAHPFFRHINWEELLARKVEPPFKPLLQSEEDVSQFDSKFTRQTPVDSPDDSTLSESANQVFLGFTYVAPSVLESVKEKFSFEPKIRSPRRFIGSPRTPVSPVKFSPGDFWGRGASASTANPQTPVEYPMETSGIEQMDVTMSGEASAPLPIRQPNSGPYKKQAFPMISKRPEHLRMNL
Description: as §1
Assay [3] deals with 363 human kinases (including Aurora A/B/C) (Homo sapiens, UniProt P31751). As to conditions: AKT2, [ATP] 100 µM; for remaining activity at 0.5 µM / remaining activity at 0.1 µM: read-out: % Enzyme Activity (relative to DMSO controls); for remaining activity at 0.1 µM: 100 nM.
363 human kinases (including Aurora A/B/C) (Homo sapiens, UniProt P31751), sequence (P31751 whole entry): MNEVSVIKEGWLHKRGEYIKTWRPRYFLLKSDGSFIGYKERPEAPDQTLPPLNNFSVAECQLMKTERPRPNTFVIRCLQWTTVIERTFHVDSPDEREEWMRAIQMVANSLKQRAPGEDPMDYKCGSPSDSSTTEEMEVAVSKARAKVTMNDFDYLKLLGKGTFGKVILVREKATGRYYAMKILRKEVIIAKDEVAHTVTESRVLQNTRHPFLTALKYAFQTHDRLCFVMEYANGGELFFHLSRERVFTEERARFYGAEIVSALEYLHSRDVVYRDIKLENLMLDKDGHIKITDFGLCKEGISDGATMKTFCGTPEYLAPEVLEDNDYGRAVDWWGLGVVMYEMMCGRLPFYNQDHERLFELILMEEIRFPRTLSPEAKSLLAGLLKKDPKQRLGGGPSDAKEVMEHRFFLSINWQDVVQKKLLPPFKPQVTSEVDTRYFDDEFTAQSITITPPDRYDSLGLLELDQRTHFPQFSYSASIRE
Description: as §1
Assay [4] deals with 363 human kinases (including Aurora A/B/C) (Homo sapiens, UniProt P49841). As to conditions: GSK3b; for remaining activity at 0.5 µM / remaining activity at 0.1 µM: read-out: % Enzyme Activity (relative to DMSO controls); for remaining activity at 0.1 µM: 100 nM.
363 human kinases (including Aurora A/B/C) (Homo sapiens, UniProt P49841), sequence (P49841 whole entry): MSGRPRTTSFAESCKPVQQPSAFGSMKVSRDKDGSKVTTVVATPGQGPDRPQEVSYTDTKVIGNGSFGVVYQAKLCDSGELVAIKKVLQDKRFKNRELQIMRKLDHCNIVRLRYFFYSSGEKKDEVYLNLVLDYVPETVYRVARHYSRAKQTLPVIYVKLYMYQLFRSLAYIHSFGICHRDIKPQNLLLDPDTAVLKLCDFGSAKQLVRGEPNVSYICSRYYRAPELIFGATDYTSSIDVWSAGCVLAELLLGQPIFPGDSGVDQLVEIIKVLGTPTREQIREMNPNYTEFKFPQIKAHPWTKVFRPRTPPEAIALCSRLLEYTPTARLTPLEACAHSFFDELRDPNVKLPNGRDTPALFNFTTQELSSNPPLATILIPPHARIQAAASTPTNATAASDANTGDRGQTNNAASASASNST
Description: as §1
For assay [5], the target named is 363 human kinases (including Aurora A/B/C) (Homo sapiens, UniProt P57059). The following applies: SIK1; for remaining activity at 0.5 µM / remaining activity at 0.1 µM: read-out: % Enzyme Activity (relative to DMSO controls); for remaining activity at 0.1 µM: 100 nM.
363 human kinases (including Aurora A/B/C) (Homo sapiens, UniProt P57059), sequence (P57059 whole entry): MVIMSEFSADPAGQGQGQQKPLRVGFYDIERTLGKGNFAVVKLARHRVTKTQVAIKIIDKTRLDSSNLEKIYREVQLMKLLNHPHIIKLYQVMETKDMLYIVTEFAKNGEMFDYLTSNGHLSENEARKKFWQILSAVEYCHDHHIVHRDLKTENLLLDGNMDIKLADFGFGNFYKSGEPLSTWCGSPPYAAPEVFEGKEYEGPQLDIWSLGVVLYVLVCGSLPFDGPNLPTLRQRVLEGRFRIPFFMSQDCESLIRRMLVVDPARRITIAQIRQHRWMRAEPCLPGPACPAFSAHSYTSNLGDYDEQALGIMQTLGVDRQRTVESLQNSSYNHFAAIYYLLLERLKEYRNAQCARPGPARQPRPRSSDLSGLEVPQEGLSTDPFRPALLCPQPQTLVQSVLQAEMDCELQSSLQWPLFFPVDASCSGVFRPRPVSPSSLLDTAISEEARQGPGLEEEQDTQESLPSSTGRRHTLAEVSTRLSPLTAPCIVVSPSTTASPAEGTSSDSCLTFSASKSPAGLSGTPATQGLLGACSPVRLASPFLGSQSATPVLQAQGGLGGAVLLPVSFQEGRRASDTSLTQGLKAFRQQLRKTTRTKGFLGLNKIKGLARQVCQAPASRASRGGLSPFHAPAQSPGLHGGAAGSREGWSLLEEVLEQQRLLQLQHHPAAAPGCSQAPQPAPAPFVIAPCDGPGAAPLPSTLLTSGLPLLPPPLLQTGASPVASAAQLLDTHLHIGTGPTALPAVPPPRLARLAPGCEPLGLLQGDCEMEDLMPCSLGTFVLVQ
Description: as §1
The target in assay [6] is 363 human kinases (including Aurora A/B/C) (Homo sapiens, UniProt Q06187). The following applies: BTK, [ATP] 50 µM; for remaining activity at 0.5 µM / remaining activity at 0.1 µM: read-out: % Enzyme Activity (relative to DMSO controls); for remaining activity at 0.1 µM: 100 nM.
363 human kinases (including Aurora A/B/C) (Homo sapiens, UniProt Q06187), sequence (Q06187 whole entry): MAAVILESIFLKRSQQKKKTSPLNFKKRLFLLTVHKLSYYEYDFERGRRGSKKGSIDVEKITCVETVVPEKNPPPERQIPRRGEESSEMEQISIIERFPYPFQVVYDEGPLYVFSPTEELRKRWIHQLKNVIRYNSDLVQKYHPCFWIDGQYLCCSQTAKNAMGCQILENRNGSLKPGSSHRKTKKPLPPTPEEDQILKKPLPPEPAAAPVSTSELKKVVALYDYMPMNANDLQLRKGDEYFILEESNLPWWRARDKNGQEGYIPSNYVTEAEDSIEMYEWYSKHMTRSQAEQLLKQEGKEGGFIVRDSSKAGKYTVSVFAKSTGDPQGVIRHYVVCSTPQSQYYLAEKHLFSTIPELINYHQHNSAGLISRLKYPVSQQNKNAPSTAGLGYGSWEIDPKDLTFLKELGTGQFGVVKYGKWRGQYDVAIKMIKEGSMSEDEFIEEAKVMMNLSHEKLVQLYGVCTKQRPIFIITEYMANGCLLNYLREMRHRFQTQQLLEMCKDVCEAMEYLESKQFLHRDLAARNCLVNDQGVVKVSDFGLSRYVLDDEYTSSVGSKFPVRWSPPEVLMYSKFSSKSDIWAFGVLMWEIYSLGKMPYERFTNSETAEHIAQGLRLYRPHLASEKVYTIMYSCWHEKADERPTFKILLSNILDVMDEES
Description: as §1
The target in assay [7] is T2, 363 human kinases (including Aurora A/B/C) (Homo sapiens, UniProt Q56UN5).
T2 sequence (Q56UN5 1-1328): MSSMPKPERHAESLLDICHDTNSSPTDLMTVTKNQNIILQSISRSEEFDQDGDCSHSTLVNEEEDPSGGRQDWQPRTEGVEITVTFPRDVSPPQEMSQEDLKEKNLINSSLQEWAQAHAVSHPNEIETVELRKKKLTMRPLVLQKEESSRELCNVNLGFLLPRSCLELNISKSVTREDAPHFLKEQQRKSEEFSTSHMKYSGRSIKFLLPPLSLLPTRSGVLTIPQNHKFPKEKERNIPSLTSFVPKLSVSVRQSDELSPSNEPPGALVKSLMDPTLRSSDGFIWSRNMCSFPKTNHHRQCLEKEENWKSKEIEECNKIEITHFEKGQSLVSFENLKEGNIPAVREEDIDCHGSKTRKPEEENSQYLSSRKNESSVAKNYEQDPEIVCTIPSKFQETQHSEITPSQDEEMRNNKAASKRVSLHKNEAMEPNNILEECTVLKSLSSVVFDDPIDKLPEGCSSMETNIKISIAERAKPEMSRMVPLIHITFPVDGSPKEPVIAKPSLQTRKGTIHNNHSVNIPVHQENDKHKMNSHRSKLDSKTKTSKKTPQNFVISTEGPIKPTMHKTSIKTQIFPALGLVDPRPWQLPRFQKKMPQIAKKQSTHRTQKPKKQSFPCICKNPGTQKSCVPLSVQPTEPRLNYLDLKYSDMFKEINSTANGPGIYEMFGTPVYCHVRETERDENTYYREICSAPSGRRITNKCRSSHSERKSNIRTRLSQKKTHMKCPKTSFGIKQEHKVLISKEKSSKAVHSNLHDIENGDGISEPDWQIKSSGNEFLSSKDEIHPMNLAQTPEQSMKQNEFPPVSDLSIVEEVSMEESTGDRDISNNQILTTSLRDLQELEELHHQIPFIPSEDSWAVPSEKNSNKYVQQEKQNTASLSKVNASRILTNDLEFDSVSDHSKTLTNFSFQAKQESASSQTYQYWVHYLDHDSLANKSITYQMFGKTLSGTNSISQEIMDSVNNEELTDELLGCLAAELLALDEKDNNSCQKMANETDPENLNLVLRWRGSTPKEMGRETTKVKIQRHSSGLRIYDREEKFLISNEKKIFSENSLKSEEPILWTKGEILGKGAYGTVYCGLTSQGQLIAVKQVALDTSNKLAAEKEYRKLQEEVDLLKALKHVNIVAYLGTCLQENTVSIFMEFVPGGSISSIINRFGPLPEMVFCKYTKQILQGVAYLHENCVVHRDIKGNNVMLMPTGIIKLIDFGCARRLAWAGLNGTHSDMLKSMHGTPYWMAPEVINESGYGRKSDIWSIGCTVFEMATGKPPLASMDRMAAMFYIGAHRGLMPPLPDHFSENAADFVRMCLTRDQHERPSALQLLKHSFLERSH
As to conditions: YSK4/MAP3K19; for remaining activity at 0.5 µM / remaining activity at 0.1 µM: read-out: % Enzyme Activity (relative to DMSO controls); for remaining activity at 0.1 µM: 100 nM.
Description: as §1

Assay [8] has as its target 363 human kinases (including Aurora A/B/C) (Homo sapiens, UniProt Q96NX5). As to conditions: CAMK1g, [ATP] 30 µM; for remaining activity at 0.5 µM / remaining activity at 0.1 µM: read-out: % Enzyme Activity (relative to DMSO controls); for remaining activity at 0.1 µM: 100 nM.
Description: as §1
Assay [9] addresses 363 human kinases (including Aurora A/B/C) (Homo sapiens, UniProt Q9UEW8). The following applies: STK39/STLK3; for remaining activity at 0.5 µM / remaining activity at 0.1 µM: read-out: % Enzyme Activity (relative to DMSO controls); for remaining activity at 0.1 µM: 100 nM.
Description: as §1

363 human kinases (including Aurora A/B/C) (Homo sapiens, UniProt Q96NX5), sequence (Q96NX5 whole entry): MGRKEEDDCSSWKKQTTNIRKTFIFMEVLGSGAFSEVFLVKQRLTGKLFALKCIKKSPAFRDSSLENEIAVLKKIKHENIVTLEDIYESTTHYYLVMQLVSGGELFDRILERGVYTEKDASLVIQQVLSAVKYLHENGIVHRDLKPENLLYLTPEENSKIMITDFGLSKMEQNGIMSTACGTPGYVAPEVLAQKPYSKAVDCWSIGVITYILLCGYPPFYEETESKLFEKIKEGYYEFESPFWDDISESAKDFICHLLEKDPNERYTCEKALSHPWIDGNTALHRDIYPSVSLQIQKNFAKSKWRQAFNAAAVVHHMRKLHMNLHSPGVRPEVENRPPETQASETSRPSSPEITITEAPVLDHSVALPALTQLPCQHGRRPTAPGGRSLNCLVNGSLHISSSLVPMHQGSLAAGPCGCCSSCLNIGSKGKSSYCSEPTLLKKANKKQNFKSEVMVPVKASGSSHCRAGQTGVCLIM

As to `O=C(c1cccc(Cl)c1F)N1CCN(Cc2cccc(Nc3nccs3)n2)CC1` [MK-8745], the “% Enzyme Activity (relative to DMSO controls)” value in [1] (500 nM) stood at 73.30%; in [2] (500 nM) it was 99.31%; in assay [3] (500 nM), 96.21%; in assay [4] (500 nM), 28.78%; in [5] (500 nM), 93.78%; in assay [6] (500 nM) it was 94.23%. The “% Enzyme Activity (relative to DMSO controls)” value in assay [7] (500 nM) was found to be 88.95%; in [8] (500 nM), 91.44%; in assay [9] (500 nM), 98.73%. In addition, the remaining activity at 0.5 µM came out at 76.7% in assay [1] (500 nM); 100% in [2] (500 nM); 96.8% in [3] (500 nM); 29.6% in [4] (500 nM); 95.7% in assay [5] (500 nM); 94.5% in assay [6] (500 nM). The remaining activity at 0.5 µM stood at 91.4% in assay [7] (500 nM), 91.9% in assay [8] (500 nM) and 99.8% in assay [9] (500 nM).
Regarding `CCn1cc(-c2ccnc3[nH]c(-c4cccc(CN(C)C)c4)cc23)c(-c2ccc(NC(=O)N(C)C)cc2)n1` [GSK1070916], the remaining activity at 0.1 µM in assay [1] was determined as 92.5%; in assay [2] it was 101%; in assay [3] it was 95.8%; in assay [4], 102%; in [5], 40.7%; in assay [6], 102%. Besides, the remaining activity at 0.1 µM turned out to be 99.2% in assay [7], 96.3% in assay [8] and 100% in assay [9].
Take `O=C(O)[C@]1(Cc2cccc(Nc3nccs3)n2)CC[C@@H](Oc2cccc(Cl)c2F)CC1` [MK-5108]: the remaining activity at 0.1 µM in [1] stood at 79.6%; in assay [2] it was 98.3%; in assay [3], 94.5%; in assay [4], 37.7%; in [5] it was 103%; in [6], 69.8%. Moreover, the remaining activity at 0.1 µM in assay [7] turned out to be 16.1%; in [8] it was 100%; in assay [9] it was 105%. In addition, the remaining activity at 0.5 µM came out at 42.7% in assay [1] (500 nM); 97.7% in [2] (500 nM); 107% in assay [3] (500 nM); 6.95% in [4] (500 nM); 54.4% in assay [5] (500 nM); 30.2% in assay [6] (500 nM). Moreover, the remaining activity at 0.5 µM was determined as 8.95% in assay [7] (500 nM), 93.7% in [8] (500 nM) and 97.4% in assay [9] (500 nM).
